Laboratory results published in US7851443B2, “Combination comprising combretastatin and anticancer agents” (Aventis Pharma SA, priority 2005, dated 2010).

Tests used:
[1] = Toxicity (mortality, weight loss) in tumor-bearing mice; type: in vivo, female C3H/HeN mice
Experimental: (§1) The animals subjected to the experiment are female C3H/HeN mice which are bilaterally grafted subcutaneously with 30 to 60 mg of a fragment of MA13/C murine mammary adenocarcinoma tumor at day 0. In the case of an early tumor treatment, the implanted animals are distributed randomly in various groups which are or are not (controls) intended to receive the treatment(s). […] Generally, the chemotherapy begins from 3 to 22 days after the graft, according to the type of tumor and the desired tumor size. The animals are observed and weighed every day. A dose which induces a weight loss of 20% or more at the lowest point (average of the group) or a mortality of 10% or more is considered to be toxic. The tumoral activity is evaluated at the highest nontoxic dose.

[2] = system: MA13/C murine mammary adenocarcinoma tumor; assay: Antitumor effect on advanced MA13/C murine mammary adenocarcinoma grafted subcutaneously in mice; type: in vivo, female C3H/HeN mice
Experimental: This efficacy can be quantified, for example by the log10 cell kill, which is determined by the following formula: log10 cell kill=T-C (days)/3.32×Td in which T-C represents the delay in tumor growth, which is the average time, in days, taken by the tumors of the treated group (T) to reach a predetermined value (1 g for example) and for the tumors of the control group (C) to reach the same value, and Td represents the time, in days, necessary for the volume of the tumors in the control group to double. During the exponential phase of tumor growth (T. H. Corbett et al., Cancer, 40, 2660.2680 (1977); F. M. Schabel et al., Cancer Drug Development, Part B, Methods in Cancer Research, 17, 3-51, New York, Academic Press Inc. (1979)). A product is considered to be active if the log10 cell kill is greater than or equal to 0.7.
The efficacy of the combinations of solid tumors can be determined experimentally in the following way:
as §1
The tumors are measured 2 or 3 times a week until the tumor reaches approximately 2 g or until the animal dies, if this occurs before the tumor reaches 2 g. The animals are autopsied when they are sacrificed.
The antitumor activity is determined in accordance with various recorded parameters, such as the dose (mg/kg), the method of administration, the administration time, the toxicity and the log cell kill, which depends on the delay in tumor growth and also on the tumor doubling time.

[3] = Formula (IIa) IV 22.3 mg/kg per administration, days 21, 25, total dose 44.6 mg/kg
[4] = Formula (IIa) IV 36.0 mg/kg per administration, days 21, 25, total dose 72.0 mg/kg
[5] = Formula (IIa) IV 58.0 mg/kg per administration, days 21, 25, total dose 116.0 mg/kg
[6] = Formula (IIa) IV 93.5 mg/kg per administration, days 21, 25, total dose 187.0 mg/kg
[7] = VEGF Trap SC 10.0 mg/kg per administration, days 21, 25, total dose 20.0 mg/kg
[8] = VEGF Trap SC 25.0 mg/kg per administration, days 21, 25, total dose 50.0 mg/kg
[9] = VEGF Trap SC 40.0 mg/kg per administration, days 21, 25, total dose 80.0 mg/kg

Q: With COc1ccc(/C=C\c2cc(OC)c(OC)c(OC)c2)cc1NC(=O)C(N)CO (stereo not shown) [Formula (IIa)] as the molecule, how does the “Average weight loss as % per mouse at the lowest point (day of the lowest point)” value (“Average weight loss as % per mouse” for short) [1, 3] read?
A: 0.6 (22) %

Q: What about the “Mortality related to the agent (day of death)” value (shortened to “Mortality related to the agent”) [1, 3] of the same molecule?
A: 0/5

Q: What about the “Average weight loss as % per mouse” value [1, 4] of the same molecule?
A: 2.1 (22) %

Q: And the “Mortality related to the agent” value [1, 4]?
A: 0/5

Q: What about the “Average weight loss as % per mouse” value [1, 5] of the same molecule?
A: 3.8 (22) %

Q: And the “Comments (dose level)” value [1, 5]?
A: HNTD

Q: And the “Mortality related to the agent” value [1, 5]?
A: 0/5

Q: What about the “Average weight loss as % per mouse” value [1, 6] of the same molecule?
A: 7.4 (26) %

Q: And the Comments [1, 6]?
A: Toxic

Q: And the “Mortality related to the agent” value [1, 6]?
A: 1/5 (23)

Q: What about the Comments [2, 3] of the same molecule?
A: Inactive

Q: What about the Log cell kill [2, 3] of the same molecule?
A: 0.4

Q: What about the “Regression Complete” value [2, 3] of the same molecule?
A: 0/5

Q: What about the “Regression Partial” value [2, 3] of the same molecule?
A: 0/5

Q: And the “T-C” value [2, 3]?
A: 3.4 days

Q: And the “Time to reach tumor size of 1000 mg (median)” value (from here on “Time to reach tumor size”) [2, 3]?
A: 27.2 days

Q: What about the Comments [2, 4] of the same molecule?
A: Inactive

Q: And the Log cell kill [2, 4]?
A: 0.5

Q: What about the “Regression Complete” value [2, 4] of the same molecule?
A: 0/5

Q: What about the “Regression Partial” value [2, 4] of the same molecule?
A: 0/5

Q: And the “T-C” value [2, 4]?
A: 4.1 days

Q: What about the “Time to reach tumor size” value [2, 4] of the same molecule?
A: 27.9 days

Q: And the Comments [2, 5]?
A: inactive

Q: And the Log cell kill [2, 5]?
A: 0.6

Q: What about the “Regression Complete” value [2, 5] of the same molecule?
A: 0/5

Q: And the “Regression Partial” value [2, 5]?
A: 0/5

Q: What about the “T-C” value [2, 5] of the same molecule?
A: 5.1 days

Q: What about the “Time to reach tumor size” value [2, 5] of the same molecule?
A: 28.9 days

Q: Which “Average weight loss as % per mouse” value [1, 7] does the source give for “VEGF Trap: fusion protein: VEGFR1 signal sequence, Ig domain D2 of VEGFR1, Ig domain D3 of VEGFR2, IgG1 Fc domain” here?
A: 0.4 (23) %

Q: And the “Mortality related to the agent” value [1, 7]?
A: 0/5

Q: And the “Average weight loss as % per mouse” value [1, 8]?
A: 1.8 (23) %

Q: What about the “Mortality related to the agent” value [1, 8] of the same molecule?
A: 0/5

Q: And the “Average weight loss as % per mouse” value [1, 9]?
A: 1.3 (23) %

Q: What about the “Mortality related to the agent” value [1, 9] of the same molecule?
A: 0/5

Q: And the Comments [2, 7]?
A: Inactive

Q: What about the Log cell kill [2, 7] of the same molecule?
A: 0.1

Q: And the “Regression Complete” value [2, 7]?
A: 0/5

Q: And the “Regression Partial” value [2, 7]?
A: 0/5

Q: What about the “T-C” value [2, 7] of the same molecule?
A: 0.4 days

Q: And the “Time to reach tumor size” value [2, 7]?
A: 24.2 days

Q: And the Comments [2, 8]?
A: Inactive

Q: What about the Log cell kill [2, 8] of the same molecule?
A: 0.4

Q: What about the “Regression Complete” value [2, 8] of the same molecule?
A: 0/5

Q: What about the “Regression Partial” value [2, 8] of the same molecule?
A: 0/5

Q: And the “T-C” value [2, 8]?
A: 2.8 days

Q: And the “Time to reach tumor size” value [2, 8]?
A: 26.6 days

Q: And the Log cell kill [2, 9]?
A: 0.1

Q: And the “Regression Complete” value [2, 9]?
A: 0/5

Q: And the “Regression Partial” value [2, 9]?
A: 0/5

Q: And the “T-C” value [2, 9]?
A: 0.8 days

Q: And the “Time to reach tumor size” value [2, 9]?
A: 24.6 days

Q: And the Comments ([2]; VEGF Trap SC 40.0 mg/kg per administration, days 21, 25, total dose 80.0 mg/kg (MAD))?
A: inactive
